This note sets out measurements from US10682371B2, “Small molecule conjugates specifically activated in tumor microenvironment for targeting and use thereof” (priority 2014, dated 2020).

For assay [1], the system named is Human breast cancer MDA-MB435 tumor tissue homogenate. The class given is biochemical. The method in brief:
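Compounds at 1 mg/ml incubated at 37° C. with 100 μg acidified (pH6.0) MDA-MB435 human breast tumor tissue homogenate, as a source of proteases for compound activation.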

For another assay, the system named is D121 lung tumor cells. The class given is in vivo, C57 mice. The method in brief: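 Endpoint is tumor inhibition rate from tumor size (mm^3) after weekly drug treatment for 4 weeks, begun once s.c. tumors from 10^6 live D121 cells reached 0.3-0.4 cm. Before challenge, C57 mice received three i.p. doses of 5×10^5 irradiated D121 cells, two weeks apart, or saline.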

Another assay relates to tumor CD8+ T cells. The assay is classed as in vivo, C57 mice. The conditions noted are these: D121 immunized C57 mice (Example 23); CD8 positive cells in CD45 positive cells of tumor. In a few lines: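 Tumour tissue homogenised and single cells filtered, washed, then stained 1 h at ambient temperature with CD45-PE and CD8-FITC antibodies. After washes in PBS with 1% FBS, flow cytometry gave the fraction of CD8⁺ cells among CD45⁺ leucocytes.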

The test system of assay [2] is Human liver cancer Hepg2 tumor tissue homogenate. The class given is biochemical. To be noted: Human liver cancer Hepg2; 100 μg acidized homogenate pH6.0, 1 mg/ml, 37°. In a few lines:
(§1)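 Protease activation of compounds was measured in acidized tissue homogenates at 37° C, using 1 mg/ml compound per 100 μg homogenate.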

Assay [3] concerns Human renal cancer OS-RC-2 tumor tissue homogenate. The class given is biochemical. To be noted: Human renal cancer OS-RC-2; 100 μg acidized homogenate pH6.0, 1 mg/ml, 37°. The method in brief: as §1
Assay [4] deals with Human non-small cell lung cancer A549 tumor tissue homogenate. The assay is classed as biochemical. To be noted: Human non-small cell lung cancer A549; 100 μg acidized homogenate pH6.0, 1 mg/ml, 37°. In a few lines: as §1
Assay [5] relates to Human prostate cancer PC-3 tumor tissue homogenate. The assay is classed as biochemical. To be noted: Human prostate cancer PC-3; 100 μg acidized homogenate pH6.0, 1 mg/ml, 37°. The method in brief:
as §1

Assay [6] relates to Human colon cancer HT-29 tumor tissue homogenate. The class given is biochemical. The conditions noted are these: Human colon cancer HT-29; 100 μg acidized homogenate pH6.0, 1 mg/ml, 37°. The method in brief:
as §1

In assay [7] the test system is Human chronic leukemia K562 tumor tissue homogenate. The class given is biochemical. The conditions noted are these: Human chronic leukemia K562; 100 μg acidized homogenate pH6.0, 1 mg/ml, 37°. In a few lines:
as §1

The test system of assay [8] is Human ovarian cancer SK-OV-3 tumor tissue homogenate. The class given is biochemical. The conditions noted are these: Human ovarian cancer SK-OV-3; 100 μg acidized homogenate pH6.0, 1 mg/ml, 37°. The method in brief:
as §1

Assay [9] deals with Human pancreatic cancer Panc-1 tumor tissue homogenate. The class given is biochemical. The conditions noted are these: Human pancreatic cancer Panc-1; 100 μg acidized homogenate pH6.0, 1 mg/ml, 37°. In a few lines: as §1
The mark [10] stands for this setting: D121 immunized C57 mice, drugs weekly for 4 weeks, Day 18 (Example 23).

`COCCOCCOCCOCCOCCOCCOCCOCCOCCOCCOCCOCC(=O)N[C@H](C)C(=O)N[C@H](C)C(=O)N[C@H](CC(N)=O)C(=O)Nc1ccc(COC(=O)OC(C(=O)OC2C[C@@]3(O)[C@@H](OC(=O)c4ccccc4)[C@H]4[C@](C)(C(=O)[C@H](OC(C)=O)C(=C2C)C3(C)C)[C@@H](O)CC2OC[C@]24OC(C)=O)[C@@H](NC(=O)c2ccccc2)c2ccccc2)cc1` (some centres unmarked) [S3′]: the “Activation ratio (%) in homogenates from different tumor tissues” value in assay [1] (Human breast cancer MDA-MB435, 100 μg acidized homogenate pH6.0, 1 mg/ml, 37°) came to 90.4%; in assay [2] it was 83.5%; in [3], 86.4%; in assay [4] it was 81.4%; in assay [5] it was 96.3%; in assay [6] it was 91.4%. Further, the “Activation ratio (%) in homogenates from different tumor tissues” value was determined as 70.2% in assay [7], 79.3% in [8] and 91.5% in [9]. For the same molecule, the “activation efficiency (%)” value in [1] (human breast cancer (MDA-MB435) tumor tissue homogenates pH6.0, 100 μg, 1 mg/ml, control compounds vs S1′-S4′) turned out to be 91.5%. In the assay on D121 lung tumor cells (setting [10]), the “Size of tumor (mm^3) Day 18” value worked out at 357.63 ± 194.54 mm^3. The “inhibitory rate on tumor % Day 18” value in the assay on D121 lung tumor cells (setting [10]) came to 77.3%. Further, the “Treatment effects on C57 mice, in words” value with D121 lung tumor cells (compared to the control group and the other treatment groups) is “greatly improved”. The “CD8: CD45 (%)” value in the assay on tumor CD8+ T cells was determined as 16.7%.
